Data as given in US9693556B2, “Herbicidal pyridazinone derivatives” (SYNGENTA LIMITED, priority 2011, dated 2017).

Tests used:
Assay type in all cases: in vivo
[1] = tested on: Alopecurus myosuroides (ALOMY); assay: Pre-emergence herbicidal glasshouse test on Alopecurus myosuroides; conditions: pre-emergence; 1000 g/h; evaluated after 13 days
Description: (§1) Seeds of a variety of test species are sown in standard soil in pots (Alopecurus myosuroides (ALOMY), Setaria faberi (SETFA), Echinochloa crus-galli (ECHCG), Solanum nigrum (SOLNI), Amaranthus retoflexus (AMARE), Ipomoea hederacea (IPOHE)). After cultivation for one day (pre-emergence) or after 8 days cultivation (post-emergence) under controlled conditions in a glasshouse (at 24/16° C., day/night; 14 hours light; 65% humidity), the plants are sprayed with an aqueous spray solution derived from the formulation of the technical active ingredient in acetone/water (50:50) solution containing 0.5% Tween 20 (polyoxyethelyene sorbitan monolaurate, CAS RN 9005-64-5). Compounds are applied at 1000 g/h. The test plants are then grown in a glasshouse under controlled conditions in a glasshouse (at 24/16° C., day/night; 14 hours light; 65% humidity) and watered twice daily. After 13 days for pre and post-emergence, the test is evaluated for the percentage herbicidal damage caused to the plant. The biological activities are shown in the following table on a five point scale (5=80-100% damage; 4=60-79% damage; 3=40-59% damage; 2=20-39% damage; 1=0-19% damage).

[2] = tested on: Echinochloa crus-galli (ECHCG); assay: Post-emergence herbicidal glasshouse test on Echinochloa crus-galli; conditions: post-emergence; 1000 g/h; evaluated after 13 days
Description: as §1

[3] = tested on: Amaranthus retoflexus (AMARE); assay: Post-emergence herbicidal glasshouse test on Amaranthus retoflexus; conditions: post-emergence; 1000 g/h; evaluated after 13 days
Description: as §1

[4] = tested on: Amaranthus retoflexus (AMARE); assay: Pre-emergence herbicidal glasshouse test on Amaranthus retoflexus; conditions: pre-emergence; 1000 g/h; evaluated after 13 days
Description: as §1

[5] = tested on: Alopecurus myosuroides (ALOMY); assay: Post-emergence herbicidal glasshouse test on Alopecurus myosuroides; conditions: post-emergence; 1000 g/h; evaluated after 13 days
Description: as §1

Solanum nigrum (SOLNI) [6] = assay: Pre-emergence herbicidal glasshouse test on Solanum nigrum; conditions: pre-emergence; 1000 g/h; evaluated after 13 days
Description: as §1

[7] = tested on: Ipomoea hederacea (IPOHE); assay: Pre-emergence herbicidal glasshouse test on Ipomoea hederacea; conditions: pre-emergence; 1000 g/h; evaluated after 13 days
Description: as §1

Setaria faberi (SETFA) [8] = assay: Pre-emergence herbicidal glasshouse test on Setaria faberi; conditions: pre-emergence; 1000 g/h; evaluated after 13 days
Description: as §1

Solanum nigrum (SOLNI) [9] = assay: Post-emergence herbicidal glasshouse test on Solanum nigrum; conditions: post-emergence; 1000 g/h; evaluated after 13 days
Description: as §1

[10] = tested on: Ipomoea hederacea (IPOHE); assay: Post-emergence herbicidal glasshouse test on Ipomoea hederacea; conditions: post-emergence; 1000 g/h; evaluated after 13 days
Description: as §1

[11] = tested on: Echinochloa crus-galli (ECHCG); assay: Pre-emergence herbicidal glasshouse test on Echinochloa crus-galli; conditions: pre-emergence; 1000 g/h; evaluated after 13 days
Description: as §1

Setaria faberi (SETFA) [12] = assay: Post-emergence herbicidal glasshouse test on Setaria faberi; conditions: post-emergence; 1000 g/h; evaluated after 13 days
Description: as §1

Structure (SMILES) | PRE Application ALOMY herbicidal damage (five point scale) [1] | POST Application ECHCG herbicidal damage (five point scale) [2] | POST Application AMARE herbicidal damage (five point scale) [3] | PRE Application AMARE herbicidal damage (five point scale) [4] | POST Application ALOMY herbicidal damage (five point scale) [5] | PRE Application SOLNI herbicidal damage (five point scale) (Solanum nigrum (SOLNI) [6]) | PRE Application IPOHE herbicidal damage (five point scale) [7] | PRE Application SETFA herbicidal damage (five point scale) (Setaria faberi (SETFA) [8]) | POST Application SOLNI herbicidal damage (five point scale) (Solanum nigrum (SOLNI) [9]) | POST Application IPOHE herbicidal damage (five point scale) [10] | PRE Application ECHCG herbicidal damage (five point scale) [11] | POST Application SETFA herbicidal damage (five point scale) (Setaria faberi (SETFA) [12])
Cn1ncc(-c2cccn(-c3cccc(C#N)c3)c2=O)c(O)c1=O [Compound 1.138] | 1 (1=0-19% damage) | 4 (4=60-79% damage) | 5 (5=80-100% damage) | 1 (1=0-19% damage) | 1 (1=0-19% damage) | 1 (1=0-19% damage) | 1 (1=0-19% damage) | 1 (1=0-19% damage) | 5 (5=80-100% damage) | 1 (1=0-19% damage) | 1 (1=0-19% damage) | 5 (5=80-100% damage)
CCn1ncc(-c2ccc(Cl)cc2S(C)(=O)=O)c(O)c1=O [Compound 2.017] | 5 (5=80-100% damage) | 5 (5=80-100% damage) | 5 (5=80-100% damage) | 5 (5=80-100% damage) | 5 (5=80-100% damage) | 5 (5=80-100% damage) | 5 (5=80-100% damage) | 5 (5=80-100% damage) | 5 (5=80-100% damage) | 5 (5=80-100% damage) | 5 (5=80-100% damage) | 5 (5=80-100% damage)
Cn1ncc(-c2ccc(C(F)(F)F)cc2[S+](C)[O-])c(O)c1=O (stereo not drawn) [Compound 1.029] | 5 (5=80-100% damage) | 5 (5=80-100% damage) | 5 (5=80-100% damage) | 5 (5=80-100% damage) | 5 (5=80-100% damage) | 5 (5=80-100% damage) | 5 (5=80-100% damage) | 5 (5=80-100% damage) | 5 (5=80-100% damage) | 5 (5=80-100% damage) | 5 (5=80-100% damage) | 5 (5=80-100% damage)
Cn1ncc(-c2ccc(S(C)(=O)=O)c(Cl)c2Cl)c(O)c1=O [Compound 1.050] | 1 (1=0-19% damage) | 5 (5=80-100% damage) | 5 (5=80-100% damage) | 5 (5=80-100% damage) | 2 (2=20-39% damage) | 3 (3=40-59% damage) | 1 (1=0-19% damage) | 2 (2=20-39% damage) | 5 (5=80-100% damage) | 5 (5=80-100% damage) | 5 (5=80-100% damage) | 4 (4=60-79% damage)
Cc1ccc(F)cc1-c1c(C(F)(F)F)ccn(-c2cnn(C)c(=O)c2O)c1=O [Compound 7.007] | 5 (5=80-100% damage) | 5 (5=80-100% damage) | 5 (5=80-100% damage) | 5 (5=80-100% damage) | 5 (5=80-100% damage) | 5 (5=80-100% damage) | 4 (4=60-79% damage) | 5 (5=80-100% damage) | 5 (5=80-100% damage) | 5 (5=80-100% damage) | 5 (5=80-100% damage) | 5 (5=80-100% damage)
CCS(=O)(=O)c1ccccc1-c1cnn(C)c(=O)c1O [Compound 1.042] | 5 (5=80-100% damage) | 5 (5=80-100% damage) | 5 (5=80-100% damage) | 5 (5=80-100% damage) | 5 (5=80-100% damage) | 5 (5=80-100% damage) | 1 (1=0-19% damage) | 5 (5=80-100% damage) | 5 (5=80-100% damage) | 4 (4=60-79% damage) | 5 (5=80-100% damage) | 5 (5=80-100% damage)
Cc1c(-c2cnn(C)c(=O)c2O)ccc2c1C(=O)N(C)S2(=O)=O [Compound 1.035] | 1 (1=0-19% damage) | 5 (5=80-100% damage) | 5 (5=80-100% damage) | 5 (5=80-100% damage) | 2 (2=20-39% damage) | 3 (3=40-59% damage) | 4 (4=60-79% damage) | 1 (1=0-19% damage) | 5 (5=80-100% damage) | 5 (5=80-100% damage) | 5 (5=80-100% damage) | 1 (1=0-19% damage)
C=CCn1c(C(F)(F)F)ccc(-c2cnn(C)c(=O)c2O)c1=O [Compound 9.011] | 2 (2=20-39% damage) | 5 (5=80-100% damage) | 5 (5=80-100% damage) | 4 (4=60-79% damage) | 4 (4=60-79% damage) | 1 (1=0-19% damage) | 1 (1=0-19% damage) | 3 (3=40-59% damage) | 5 (5=80-100% damage) | 4 (4=60-79% damage) | 5 (5=80-100% damage) | 5 (5=80-100% damage)
CN(Cc1nc(C(F)(F)F)ccc1-c1cnn(C)c(=O)c1O)S(C)(=O)=O [Compound 1.040] | 5 (5=80-100% damage) | 5 (5=80-100% damage) | 5 (5=80-100% damage) | 5 (5=80-100% damage) | 4 (4=60-79% damage) | 5 (5=80-100% damage) | 4 (4=60-79% damage) | 5 (5=80-100% damage) | 5 (5=80-100% damage) | 5 (5=80-100% damage) | 5 (5=80-100% damage) | 5 (5=80-100% damage)
COc1ccc(-n2cccc(-c3cnn(C)c(=O)c3O)c2=O)cc1 [Compound 9.016] | 2 (2=20-39% damage) | 4 (4=60-79% damage) | 5 (5=80-100% damage) | 1 (1=0-19% damage) | 3 (3=40-59% damage) | 1 (1=0-19% damage) | 1 (1=0-19% damage) | 1 (1=0-19% damage) | 5 (5=80-100% damage) | 2 (2=20-39% damage) | 1 (1=0-19% damage) | 3 (3=40-59% damage)
